Reference: US7579324B2, “Conjugates of biologically active compounds, methods for their preparation and use, formulation and pharmaceutical applications thereof” (c-a-i-r biosciences GmbH, priority 2002, dated 2009)

Tested on: HeLa or JURKAT cells
Assay: Cytotoxicity assay (Alamar Blue) with guanosine rescue
Type: cell-based
Description: HeLa cells (DSMZ, ACC 57) and Jurkat cells (DSMZ, ACC 282) in exponential growth phase are exposed for 3 days to test compounds. The number of surviving cells is then determined by the Alamar Blue assay (Serotec Inc.). This assay incorporates a fluorometric growth indicator based on detection of metabolic activity. Specifically, the system incorporates an oxidation-reduction indicator that fluoresces in response to chemical reduction of the growth medium resulting from cell growth. As cells grow in culture, innate metabolic activity results in a chemical reduction of the immediate surrounding environment. Continued growth maintains a reduced environment while inhibition of growth maintains an oxidized environment. […] Fluorescence is monitored at 560 nm (Exc.) and 590 nm Em.
HeLa cells (1×10^3) or JURKAT cells (1×10^3) are plated in 100 μl MEM medium (with Earle's salt; Biochrom KG) containing 10% FBS, 2 mM L-glutamine, and non-essential animo acids in 96-well plates and incubated at 37° C. and 5% CO2 atmosphere. […] The fluorescence is then measured as described above and the LD50 is determined based on a sigmoidal dose response regression. […] Any toxicity still detected can then be ascribed either to other biological effects of the of T—L—C conjugate of mycophenolic acid, or is due to the very high intracellular concentration of mycophenolic acid, following concentrative uptake into the cell.

Compound: COc1c(C)c2c(c(O)c1C/C=C(\C)CCC(=O)O)C(=O)OC2 [Mycophenolic acid]
- effect in the presence of guanosine (50 μM guanosine in culture medium): completely removed
- IC50 (normal culture conditions, HeLa or JURKAT): < 2000 nM
